Measurements from patent US11957684B2, “Treatment of heavy menstrual bleeding associated with uterine fibroids” (Sumitomo Pharma Switzerland GmbH, priority 2016, dated 2024).

Assays:
women with endometriosis = assay: Example 7: bone mineral density and serum hormones; assay type: in vivo, human; settings: for percent change of bone mineral density from baseline: 12 wk; for week from which median serum estradiol was below LLQ: Compound 1 40 mg, leuprolide acetate 3.75 mg/4 wk
Description: Subjects were diagnosed with endometriosis within the 5 years before screening and had dysmenorrhea and pelvic pain, of which either 1 or both was at least “moderate” as determined by the investigator using the Biberoglu & Behrman (B&B) scale. […] Secondary endpoints included VAS score for pelvic pain, dysmenorrhea, and dyspareunia during the treatment period.

[1] = tested on: women with uterine fibroids; assay: Example 10: safety
Description: Secondary endpoints for safety included: Adverse events (AEs), vital signs, weight, standard 12-lead electrocardiogram (ECG), clinical laboratory tests, BMD, biochemical bone metabolism markers (serum N-telopeptide [NTELOP] and bone specific alkaline phosphatase [BAP])

## CONC(=O)Nc1ccc(-c2sc3c(c2CN(C)C)c(=O)n(-c2ccc(OC)nn2)c(=O)n3Cc2c(F)cccc2F)cc1 [Compound 1, N-(4-(1-(2,6-difluorobenzyl)-5-((dimethylamino)methyl)-3-(6-methoxy-3-pyridazinyl)-2,4-dioxo-1,2,3,4-tetrahydrothieno[2,3-d]pyrimidin-6-yl)phenyl)-N′-methoxyurea]
Women with endometriosis; 10 mg
  percent change of bone mineral density from baseline: −0.95±1.875%
Women with endometriosis; 20 mg
  percent change of bone mineral density from baseline: −1.34±2.087%
Women with endometriosis; 40 mg
  percent change of bone mineral density from baseline: −2.08±2.220%
Women with endometriosis
  week from which median serum estradiol was below LLQ: 2 Week
[1]; 24 wk
  AE: Arthralgia: 8(5.8) n(%)
  AE: Bone density decreased: 6(4.3) n(%)
  AE: Bone resorption test abnormal: 7(5.1) n(%)
  AE: Dizziness: 9(6.5) n(%)
  AE: Gamma-glutamyl transferase increased: 7(5.1) n(%)
  AE: Genital haemorrhage: 7(5.1) n(%)
  AE: Headache: 21(15.2) n(%)
  AE: Hot flush: 59(42.8) n(%)
  AE: Hyperhidrosis: 13(9.4) n(%)
  AE: Malaise: 8(5.8) n(%)
  AE: Menorrhagia: 34(24.6) n(%)
  AE: Metrorrhagia: 68(49.3) n(%)
  AE: Resorption bone increased: 7(5.1) n(%)
  AE: Somnolence: 7(5.1) n(%)
  AE: Viral upper respiratory tract infection: 39(28.3) n(%)
  AEs Leading to Study Drug Discontinuation: 9(6.5) n(%)
  Deaths: 0(0.0) n(%)
  SAEs Leading to Study Drug Discontinuation: 0(0.0) n(%)
  Serious Treatment-Emergent AEs: 0(0.0) n(%)
  Serious Treatment-Emergent AEs, Not Related: 0(0.0) n(%)
  Serious Treatment-Emergent AEs, Related: 0(0.0) n(%)
  Treatment-Emergent AEs: 131(94.9) n(%)
  Treatment-Emergent AEs, Not Related: 11(8.0) n(%)
  Treatment-Emergent AEs, Related: 120(87.0) n(%)
[1]; in vivo
  AE leading to discontinuation: Abdominal pain: 0(0.0) n(%)
  AE leading to discontinuation: Arthralgia: 1(0.7) n(%)
  AE leading to discontinuation: Back pain: 0(0.0) n(%)
  AE leading to discontinuation: Blood pressure increased: 0(0.0) n(%)
  AE leading to discontinuation: Depression: 1(0.7) n(%)
  AE leading to discontinuation: Drug eruption: 0(0.0) n(%)
  AE leading to discontinuation: Fatigue: 1(0.7) n(%)
  AE leading to discontinuation: Headache: 1(0.7) n(%)
  AE leading to discontinuation: Hot flush: 4(2.9) n(%)
  AE leading to discontinuation: Hypertension: 0(0.0) n(%)
  AE leading to discontinuation: Malaise: 1(0.7) n(%)
  AE leading to discontinuation: Nausea: 0(0.0) n(%)
  AE leading to discontinuation: Pyrexia: 0(0.0) n(%)
  AE leading to discontinuation: Tenosynovitis: 1(0.7) n(%)
  AE leading to discontinuation: Tenosynovitis stenosans: 1(0.7) n(%)
  ALP > 3 × ULN: 0 (0.0) n (%)
  ALT > 3 × ULN: 3 (2.2) n (%)
  ALT > 5 × ULN: 1 (0.7) n (%)
  ALT and AST > 3 × ULN: 2 (1.4) n (%)
  ALT or AST > 3 × ULN with Tbili > 2 × ULN: 0 (0.0) n (%)
  AST > 3 × ULN: 2 (1.4) n (%)
  AST > 5 × ULN: 0 (0.0) n (%)
  Any Markedly Abnormal LFT: 3 (2.2) n (%)

## CCNC(=O)[C@@H]1CCCN1C(=O)[C@H](CCCNC(=N)N)NC(=O)[C@H](CC(C)C)NC(=O)[C@@H](CC(C)C)NC(=O)[C@H](Cc1ccc(O)cc1)NC(=O)[C@H](CO)NC(=O)[C@H](Cc1c[nH]c2ccccc12)NC(=O)[C@H](Cc1c[nH]cn1)NC(=O)[C@@H]1CCC(=O)N1 [leuprolide acetate, reference compound]
Women with endometriosis
  week from which median serum estradiol was below LLQ: 4 Week
Women with endometriosis; FIG. 162, relative to control (placebo)
  mean estradiol serum concentration four weeks after discontinuation: only about one-fifth of the control
[1]; 24 wk
  Deaths: 0(0.0) n(%)
